Series [1] has as its target T1, Aβ(1-42) (Homo sapiens, UniProt P05067).
T1 construct: Required Aβ(1-42)(California Peptide) was dried from its hexafluoroisopropanol (HFIP) stock solution; purchased California Peptide
Put plainly: BATYM Assay (Aβ(1-42) aggregation, Thioflavin T fluorescence). It is filed as biochemical. To be noted: Aβ 1-42 final concentration 100 μM, PBS pH 7.4, 37° C., 1 day, ThT fluorescence. How it is done: Required Aβ(1-42)(California Peptide) was dried from its hexafluoroisopropanol (HFIP) stock solution. The Aβ(1-42) was dissolved in dimethylsulfoxide (DMSO) and then mixed with phosphate buffered saline, (PBS) (pH 7.4). The mixed Aβ(1-42) solution was filtered with a 0.2 μm Omnipore membrane syringe filter (Millipore, Bedford, Mass.). The compound to be tested in DMSO (50 times concentrate) was put into each well (0.5 μL/well) of a 96-well plate. The Aβ(1-42) solution was added into each well (24.5 μL/well). The plate was centrifuged at 1,000 g for 5 minutes and incubated at 37° C. for 1 day (Aβ 1-42; final concentration 100 μM).
After incubation Thioflavin T (ThT) (30 μM) solution in glycine-NaOH buffer (pH 8.5, 50 mM) was added into each well (250 μL/well), fluorescence was measured (ex. 440/20 nm; em 485/20 nm) using a fluorescence plate reader. The inhibitory activity was calculated as the reduction of fluorescence with the following formula:
inhibition (%)={(F(Aβ)−F(Aβ+compound)}/{F(Aβ)−F(solvent+compound)}×100
The IC50s were calculated by a curve fitting program using the following equation. The data were obtained from two different experiments in triplicate.
x=concentration of tested compound (M),

The target in series [2] is T2, Aβ(1-40) (Homo sapiens, UniProt P05067).
T2 construct: Soluble Aβ(1-40) peptide (Bachem, Torrance, Calif.); purchased Bachem, Torrance, Calif
T2 sequence (P05067 672-711 limits assumed): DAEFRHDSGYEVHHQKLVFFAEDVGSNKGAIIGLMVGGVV
Put plainly: BASSR (Beta-Amyloid Self-Seeding Radioassay), inhibitors of self-seeded amyloid fibril growth. Particulars: 30 μM soluble Aβ(1-40) + 125I-labeled Aβ(1-40), pH 7.5, 37° C., 3 to 5 hours, filtration. It is filed as biochemical. Here is the method:
BASSR (Beta-Amyloid Self-Seeding Radioassay)
(§1) An assay for inhibitors of self-seeded amyloid fibril growth
Assay Buffer—50 mM sodium phosphate, pH 7.5, 100 mM NaCl, 0.02% NaN3, 1 M urea (filter and store at 4° C.)
Soluble Aβ(1-40) peptide (Bachem, Torrance, Calif.)—2.2 mg/mL in deionized H2O (stored in aliquots at −20° C., keep on ice when thawed) will self-seed after 1 week storage. Typically, the solution should be stored until no lag phase is seen in the assay.
^125I-labeled Aβ(1-40)—150K-350K cpm/μL in 100% acetonitrile—0.1% trifluoroacetic acid (TFA)—1% β-mercaptoethanol (aliquots stored at −20° C.). ^125I-labeled Aβ(1-40) can be made in accordance with the procedure set forth by H. Levine, III in Neurobiol. Aging, 16:755 (1995), which is hereby incorporated by reference, or this reagent may be purchased from Amersham, Arlington Heights, Ill.
Final assay conditions: 30 μM soluble Aβ(1-40) in deionized water in assay buffer+20-50K cpm ^125I-labeled Aβ(1-40) per assay. Compound to be tested is dissolved in dimethylsulfoxide (DMSO), typically 5-50 mM stock, such that the final concentration of DMSO is <1% v/v in the assay.
Assay: Reaction mixture for 50 assays (on ice) is comprised of 0.1-0.2 μL of […] ^125I-labeled Aβ(1-40)+1 μL of soluble Aβ(1-40)+13.5 μL assay buffer per assay. The following are the amounts of the components of the reaction mixture sufficient for 50 assay wells.
1) Prepare reaction mixture above by mixing components and storing on ice.
2) Pipet 14.5 μL of reaction mixture into each of 50 wells on a polypropylene U-bottom 96-well microtiter plate on ice (Costar 3794).
3) Add 1.7 μL of diluted compound to be tested to each well in a column of eight, including solvent control. Serial 3-fold dilutions from 1 mM (100 μM final) in assay buffer−urea=7 dilutions+zero. Each 96-well plate can therefore accommodate 11 samples+1 Congo Red control (0.039-5 μM final in 2-fold steps).
4) Seal the plate with aluminum film (Beckman 538619) and incubate for 10 minutes on ice.
5) Raise the temperature to 37° C. and incubate for 3 to 5 hours (depending on the lot of the peptide).
6) Remove the aluminum film and add 200 μL/well of ice cold assay buffer with urea, collecting the radiolabeled fibrils by vacuum filtration through 0.2 μm pore size GVWP filters in 96-well plates (Millipore MAGV N22, Bedford, Mass.). Determine the radioactivity of the filters using standard methods well-known to those skilled in the art.

Series [3] addresses T2, Aβ(1-40). Put plainly: BASST (Beta-Amyloid Self-Seeding, ThioflavinT), inhibitors of self-seeded amyloid fibril growth. It is filed as biochemical. To be noted: 30 μM soluble Aβ(1-40), pH 7.5, 37° C., 3 to 5 hours, thioflavin T fluorescence. How it is done: BASST (Beta-Amyloid Self-Seeding, ThioflavinT)
as §1
Assay Buffer—50 mM sodium phosphate, pH 7.5, 100 mM NaCl, 0.02% NaN3, 1 M urea (filter and store at 4° C.).
Soluble Aβ(1-40)—2.2 mg/mL in deionized H2O (store in aliquots at −20° C., keep on ice when thawed) will self-seed after 1 week storage. Typically, the solution should be stored until no lag phase is seen in the assay.
Final assay conditions: 30 μM soluble Aβ(1-40) in deionized water in assay buffer. Compound to be tested is dissolved in DMSO, typically 5-50 mM stock, such that the final concentration of DMSO is <1% v/v in the assay.
Assay: Reaction mixture for 50 assays (on ice) comprised of 1 μL of soluble Aβ(1-40)+13.5 μL assay buffer per assay. The following are the amounts of the components of the reaction mixture that result in each of the 50 assay wells.
1) Prepare the reaction mix above by mixing the components and storing on ice.
2) Pipet […] of reaction mixture into each of 50 wells of a polystyrene U-bottom 96-well microtiter plate (Corning 25881-96) on ice.
3) Add […] of diluted compound to be tested to each well in a column of eight, including solvent control. Serial 3-fold dilutions from 1 mM (100 μM final) in assay buffer−urea=7 dilutions+zero. Each 96-well plate can therefore accommodate 11 samples+1 Congo Red control (0.039-5 μM final in 2-fold steps).
4) Seal the plate with aluminum film and incubate for 10 minutes on ice.
5) Raise the temperature to 37° C. and incubate for 3 to 5 hours (depends on the lot of the peptide).
6) Remove the aluminum film and add 250 μL/well of 5 μM thioflavin T (ThT) [T-3516, Sigma-Aldrich] in 50 mM glycine-NaOH, pH 8.5. Read fluorescence on a plate reader (ex=440 nm/20 nm; em=485 nm/20 nm) within 5 minutes.

For series [4], the target named is T3, beta amyloid peptide Aβ(1-40) (Homo sapiens, UniProt P05067).
T3 construct: 0.5 mg/mL AP (140) peptide in 20% HFIP+0.1 μL/assay radioiodinated ^125I Aβ(1-40)
T3 sequence (P05067 672-711 limits assumed): as above
Put plainly: BAPA (Beta-Amyloid Peptide Aggregation), pH 6.0. It is filed as biochemical. To be noted: Aβ(1-40) 33 μM, pH 6.0, 2 to 4 hours at room temperature, filtration. Here is the method:
BAPA (Beta-Amyloid Peptide Aggregation)
This assay is used to provide a measure of inhibition by a compound against the aggregation behavior of the beta amyloid peptide.
The purpose of this assay is to provide a higher volume method of assaying the amount of beta amyloid aggregation using an endpoint assay based on filtration. In this assay, hexafluoroisopropanol (HFIP) is used to break down the initial amyloid peptide to a monomer state and use a concentration of 33 μM which is high enough so that aggregation will occur at pH 6.0 in several hours.
β-Amyloid Peptide Aggregation, pH 6.0 (BAPA)
In a 96-well plate (Costar 3794), we add […] 50 mM Phosphate Buffer, pH 6.0, 10 μL 0.5 mg/mL AP (140) peptide in 20% HFIP+0.1 μL/assay radioiodinated ^125I Aβ(1-40) [^125I Aβ(1-40)], and 1 μL of the compound to be tested starting at 50 mM with a concentration of DMSO <1%. Then, we incubate for 2 to 4 hours at room temperature. We stop the reaction with […] of 50 mM phosphate buffer, pH 6.0, and filter it through a 0.2 μm 96-well filter plate (Millipore MAGU N22). We wash the filter plate with 100 μL of the same phosphate buffer. Aggregation was detected on a Microbeta counter after impregnating the filters with Meltilex (1450-441) and is corrected for background.

In general, pIC50 refers to the negative decadic logarithm of the IC50, by convention in mol/L. Usually melting point stands for the temperature of the solid-liquid transition.

pIC50: −log10 of the molar value. Where only a bound is given, the exact number is not on record here.

T1 sequence (P05067 672-713 limits assumed): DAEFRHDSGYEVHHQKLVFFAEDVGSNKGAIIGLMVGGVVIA

The compound `CCCCCN(CCCCC)c1ccc(/C=C2\SC(=S)N(CC(=O)NS(=O)(=O)C(F)(F)F)C2=O)cc1` [Example 8, (Z) N-{5-[4-(Dipentylamino-benzylidene)-4-oxo-2-thioxo-thiazolidin-3-yl]-acetyl}-C,C,C-trifluoro-methanesulfonamide] had a melting point of 286 to 288 °C. Further, the negative-log IC50 (pIC50) in series [1] was 5.71. In series [2], the pIC50 is below 4.00. This compound showed a pIC50 in series [3] of 6.00. The pIC50 in series [4] is 5.60.
For `CCCCCCN(C)c1ccc(/C=C2\SC(=S)N(CCNC(=O)C(F)(F)F)C2=O)cc1` [Example 13, (Z) 2,2,2-Trifluoro-N-(2-{5-[4(hexyl-methyl-amino)benzylidene]-4-oxo-2-thioxo-thiazolidin-3-yl}-ethyl)-acetamide], in that order: 136 to 139 °C, 5.46, below 4.00, 5.00 and 4.55.
For `CCCCCCN(C)c1ccc(/C=C2\SC(=S)N(CC(=O)NC)C2=O)cc1` [Example 4, (Z) 2-{5-[4(Hexyl-methyl-amino)-benzylidene]-4-oxo-2-thioxo-thiazolidin-3-yl}-N-methyl-acetamide], in that order: 228 to 230 °C, 5.08, below 4.00, 5.52 and 5.22.
The corresponding values for `CCCCN(CCCC)c1ccc(/C=C2\SC(=S)N(CCS(=O)(=O)NC(=O)c3ccccc3)C2=O)cc1` [Example 28, (Z) 2-[5-(4-Dibutylamino-benzylidene)-4-oxo-2-thioxo-thiazolidin-3-yl]-ethanesulfonic acid benzoylamide] are 183 °C, 5.66, 4.68, 6.52 and 4.16.
The compound `CCCCCN(CCCCC)c1ccc(/C=C2\SC(=S)N(CCS(=O)(=O)NC(=O)c3ccc(F)cc3)C2=O)cc1` [Example 31, (Z) 2-[5-(4-Dipentylamino-benzylidene)-4-oxo-2-thioxo-thiazolidin-3-yl]-ethanesulfonic acid 4-fluoro-benzoylamide] showed a melting point of 195 to 196 °C. The compound also showed a pIC50 in series [1] of 5.51. In series [2], the pIC50 is 5.05. The same compound gave a pIC50 in series [3] of 6.52. Also, in series [4], the pIC50 was below 4.00.
The corresponding values for `CCCCCCN(C)c1ccc(/C=C2\SC(=S)N(CC(=O)NS(=O)(=O)c3ccccc3)C2=O)cc1` [Example 9, (Z) N-({5-[4-(Hexyl-methyl-amino)benzylidene]-4-oxo-2-thioxo-thiazolidin-3-yl}-acetyl)benzenesulfonamide] are 173 to 177 °C, 5.67, below 4.00, 5.76 and 5.40.
The corresponding values for `CCCCCCN(C)c1ccc(/C=C2\SC(=S)N(CC(=O)NS(C)(=O)=O)C2=O)cc1` [Example 5, (Z) N-({5-[4-(Hexyl-methyl-amino)-benzylidene]4-oxo-2-thioxo-thiazolidin-3-yl}-acetyl)methanesulfonamide] are 227 to 230 °C, 5.74, 5.05, 6.10 and below 5.00.
The corresponding values for `CCCCCCN(C)c1ccc(/C=C2\SC(=S)N(CCS(=O)(=O)NC)C2=O)cc1` [Example 2, (Z) 2-{5-[4-(Hexyl-methyl-amino)-benzylidene]-4-oxo-2-thioxo-thiazolidin-3-yl}-ethanesulfonic acid methylamide] are 147 to 149 °C, 5.63, below 4.00, 6.10 and 5.15.
For the compound `CCCC1CCN(c2ccc(/C=C3\SC(=S)N(CC(=O)NS(=O)(=O)c4ccccc4)C3=O)cc2)CC1` [Example 36, (Z) N-(2-{4-Oxo-5-[4-(4-propyl-piperidin-1-yl)-benzylidene]-2-thioxo-thiazolidin-3-yl}-acetyl)benzenesulfonamide], the melting point was 201 °C. Besides, the pIC50 in series [1] was 5.48. For the same compound, the pIC50 in series [2] was below 4.00. This compound also had a negative-log IC50 (pIC50) in series [3] of 6.00. The compound further gave a negative-log IC50 (pIC50) in series [4] below 4.22.

For the origin of these results see patent US20040197268A1, “Method of imaging amyloid deposits using substituted rhodanine derivatives” (priority 1999, published 2004).
